Experimental data reported in patent publication US8426429B2, “2-amino-quinazoline derivatives useful as inhibitors of β-secretase (BACE)” (Jansssen Pharmaceutica N.V., priority 2004, dated 2013).

Target: T1, β-secretase (BACE) (Homo sapiens, UniProt P56817)
T1 construct: purchased Panvera
Assay: BACE FS1 % Inhibition Assay
Assay type: biochemical
Protocol: The following reagents were used in this assay: sodium acetate, PEG8000 (Sigma), DMSO, HEPES, FS1 substrate [[…]] […] The FS1-substrate stock solution was prepared in DMSO as a 10 mg/mL solution. The FS1-substrate working solution was prepared by diluting the 10 mg/mL stock solution with substrate assay buffer to a final concentration of 300 μg/mL. The β-secretase (BACE) working solution was prepared by diluting a 0.83 mg/mL BACE stock solution with enzyme assay buffer to a final concentration of 4 μg/mL. Test compounds were dissolved in DMSO to 10 mM. […] The screening procedure for this assay was as follows: 15 μL of BACE working solution was pipetted into each well of a 96-well plate. To each well was then pipetted 2 μL of test compound at the selected concentration. Test compound and BACE were then mixed with a pipettor and incubated for 20 min at room temperature. To each well was then added 10 μL of the FS1 substrate working solution. The plates were then incubated for 1 hour at room temperature. […] The procedure for the blank was as follows. 15 μL of assay buffer was pipetted into each well to be used as a blank control. To each well was then added 2 μL of vehicle and 10 μL of FS1-substrate working solution. The plates were then incubated for 1 hour at room temperature. […] The procedure for the positive control was as follows: 15 μL of BACE working solution was pipetted into each well to be used as a positive control. To each well was then pipetted 2 μL of vehicle. Vehicle and BACE were then mixed with a pipettor and incubated for 20 min at room temperature. To each well was then added 10 μL of the FS1 substrate working solution. The plates were then incubated for 1 hour at room temperature. […] For test compounds, % inhibition was determined at each concentration as follows: [formula]

T1 sequence (P56817 46-501): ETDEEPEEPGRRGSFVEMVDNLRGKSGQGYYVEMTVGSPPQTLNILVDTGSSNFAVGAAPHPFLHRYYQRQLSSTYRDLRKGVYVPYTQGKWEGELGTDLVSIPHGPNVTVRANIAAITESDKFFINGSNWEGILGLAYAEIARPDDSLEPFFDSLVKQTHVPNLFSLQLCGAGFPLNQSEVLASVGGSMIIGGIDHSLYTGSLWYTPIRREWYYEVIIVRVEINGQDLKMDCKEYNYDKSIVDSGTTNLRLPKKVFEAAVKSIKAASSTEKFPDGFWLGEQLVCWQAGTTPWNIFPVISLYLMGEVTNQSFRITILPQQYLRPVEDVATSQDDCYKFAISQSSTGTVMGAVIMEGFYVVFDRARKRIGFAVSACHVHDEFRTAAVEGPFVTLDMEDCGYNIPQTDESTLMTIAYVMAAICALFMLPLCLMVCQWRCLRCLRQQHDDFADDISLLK

Compound	% Inhibition (FS) (0.3 μM test compound)	% Inhibition (FS) (1 μM test compound)	% Inhibition (FS) (3 μM test compound)
NC1=Nc2ccc(Oc3ccccc3)cc2CN1C(CC(=O)NC1CCCCC1)C1CCCCC1 (stereo not drawn) [Compound 300]	<30%	<30%	77%
CCCCC(CC)C(=O)NCC(C1CCCCC1)N1Cc2cc(Oc3ccccc3)ccc2N=C1N (stereo not drawn) [Compound 303]	<30%	70%	109%
CN(C(=O)c1cccc(C(CC2CCCCC2)N2Cc3cc(Oc4ccccc4)ccc3N=C2N)c1)C1CCCCC1 (stereo not drawn) [Compound 310]	<30%	<30%	57%
NC1=Nc2ccc(Oc3ccccc3)cc2CN1C(CNC(=O)CC1CCCC1)C1CCCCC1 (stereo not drawn) [Compound 311]	74%	108%	118%
NC1=Nc2ccc(Oc3ccccc3)cc2CN1C(CNC(=O)C12CC3CC(CC(C3)C1)C2)C1CCCCC1 (stereo not drawn) [Compound 312]	74%	103%	115%
CC(C)c1ccccc1Oc1ccc2c(c1)CN(C(CC(=O)NC1CCCCC1)C1CCCCC1)C(N)=N2 (stereo not drawn) [Compound 313]	<30%	<30%	31%
NC1=Nc2ccc(Oc3ccccc3)cc2CN1C(CC(=O)NC1C2CC3CC(C2)CC1C3)C1CCCCC1 (stereo not drawn) [Compound 314]	<30%	45%	85%
CN1CCC(N(C)C(=O)c2cccc(C(c3ccccc3)N3Cc4cc(Oc5ccccc5)ccc4N=C3N)c2)CC1 (stereo not drawn) [Compound 316]	<30%	<30%	<30%
CN(C(=O)c1cccc(CN2Cc3cc(-c4ccccc4-c4ccccc4)ccc3N=C2N)c1)C1CCCCC1 [Compound 321]	−33%	<30%	<30%
CCC(c1cccc(C(=O)N(C)C2CCCCC2)c1)N1Cc2cc(-c3ccccc3OC)ccc2N=C1N (stereo not drawn) [Compound 395]	69%	107%	118%
CC(C)C(CC(=O)NC1CCCCC1)N1Cc2cc(Oc3ccccc3)ccc2N=C1N (stereo not drawn) [Compound 401]	<30%	<30%	52%
CC(C)C(CC(=O)NC1C2CC3CC(C2)CC1C3)N1Cc2cc(Oc3ccccc3)ccc2N=C1N (stereo not drawn) [Compound 402]	<30%	53%	99%
Cc1cccc(Sc2ccc3c(c2)CN(Cc2cccc(C(=O)N(C)C4CCCCC4)c2)C(N)=N3)c1 [Compound 405]	43%	106%	118%
CC(C)c1ccc(Sc2ccc3c(c2)CN(Cc2cccc(C(=O)N(C)C4CCCCC4)c2)C(N)=N3)cc1 [Compound 407]	<30%	<30%	48%
Cc1ccc(Sc2ccc3c(c2)CN(Cc2cccc(C(=O)N(C)C4CCCCC4)c2)C(N)=N3)cc1C [Compound 408]	<30%	34%	95%
Cc1cc(C)cc(Sc2ccc3c(c2)CN(Cc2cccc(C(=O)N(C)C4CCCCC4)c2)C(N)=N3)c1 [Compound 409]	<30%	<30%	72%
COc1ccc(Sc2ccc3c(c2)CN(Cc2cccc(C(=O)N(C)C4CCCCC4)c2)C(N)=N3)cc1 [Compound 410]	<30%	39%	50%
COc1ccc(Sc2ccc3c(c2)CN(Cc2cccc(C(=O)N(C)C4CCCCC4)c2)C(N)=N3)cc1OC [Compound 411]	<30%	<30%	55%
CSc1ccc(Sc2ccc3c(c2)CN(Cc2cccc(C(=O)N(C)C4CCCCC4)c2)C(N)=N3)cc1 [Compound 413]	<30%	<30%	53%
CN(C(=O)c1cccc(CN2Cc3cc(Sc4ccc5ccccc5c4)ccc3N=C2N)c1)C1CCCCC1 [Compound 415]	<30%	<30%	63%
CNC(=O)c1ccccc1Sc1ccc2c(c1)CN(Cc1cccc(C(=O)N(C)C3CCCCC3)c1)C(N)=N2 [Compound 416]	<30%	<30%	−3%
CC(=O)Nc1ccc(Sc2ccc3c(c2)CN(Cc2cccc(C(=O)N(C)C4CCCCC4)c2)C(N)=N3)cc1 [Compound 417]	<30%	<30%	78%
CCC(c1cccc(C(=O)N(C2CCCCC2)C2CCCCC2)c1)N1Cc2cc(Oc3ccccc3)ccc2N=C1N (stereo not drawn) [Compound 419]	38%	64%	109%
CN(C(=O)CCC(c1ccc(-c2ccccc2)cc1)N1Cc2cc(Oc3ccccc3)ccc2N=C1N)C1CCCCC1 (stereo not drawn) [Compound 420]	<30%	<30%	53%

Further lines, results first:

% Inhibition (FS) (0.3 μM test compound)	% Inhibition (FS) (1 μM test compound)	% Inhibition (FS) (3 μM test compound)	Compound
<30%	<30%	36%	NC1=Nc2ccc(Oc3ccccc3)cc2CN1Cc1cccc(NC(=O)C2CCCCC2)c1 [Compound 286]
<30%	<30%	<30%	CC(C)(C)C(=O)Nc1cccc(CN2Cc3cc(Oc4ccccc4)ccc3N=C2N)c1 [Compound 290]
<30%	76%	109%	CN(C(=O)CCC(c1ccc(Cl)cc1)N1Cc2cc(Oc3ccccc3)ccc2N=C1N)C1CCCCC1 (stereo not drawn) [Compound 297]
<30%	<30%	<30%	NC1=Nc2ccc(Oc3ccccc3)cc2CN1C(CC(=O)NC1CCCCC1)c1ccccc1 (stereo not drawn) [Compound 299]
<30%	82%	106%	CC(C)C(=O)NCC(C1CCCCC1)N1Cc2cc(Oc3ccccc3)ccc2N=C1N (stereo not drawn) [Compound 301]
<30%	<30%	46%	NC1=Nc2ccc(Oc3ccccc3)cc2CN1Cc1cccc(CNC(=O)C2CCCCC2)c1 [Compound 306]
<30%	<30%	<30%	NC1=Nc2ccc(Oc3ccccc3)cc2CN1Cc1cccc(CNC(=O)C(F)(F)F)c1 [Compound 307]
<30%	<30%	33%	CC(C)(C)OC(=O)NCc1cccc(CN2Cc3cc(Oc4ccccc4)ccc3N=C2N)c1 [Compound 315]
−31%	<30%	<30%	CCc1ccccc1-c1ccc2c(c1)CN(Cc1cccc(C(=O)N(C)C3CCCCC3)c1)C(N)=N2 [Compound 320]
<30%	<30%	45%	CC(=O)c1ccccc1-c1ccc2c(c1)CN(Cc1cccc(C(=O)N(C)C3CCCCC3)c1)C(N)=N2 [Compound 323]
<30%	<30%	48%	CN(C(=O)c1cccc(CN2Cc3cc(-c4ccccc4OCc4ccccc4)ccc3N=C2N)c1)C1CCCCC1 [Compound 327]
<30%	<30%	<30%	CC(c1ccccc1)c1ccc2c(c1)CN(Cc1cccc(C(=O)N(C)C3CCCCC3)c1)C(N)=N2 (stereo not drawn) [Compound 332]
<30%	<30%	66%	NC1=Nc2ccc(Oc3ccccc3)cc2CN1CCCNC1CCCCC1 [Compound 403]
<30%	<30%	50%	CCc1ccccc1Sc1ccc2c(c1)CN(Cc1cccc(C(=O)N(C)C3CCCCC3)c1)C(N)=N2 [Compound 406]
<30%	<30%	49%	COc1ccccc1Sc1ccc2c(c1)CN(Cc1cccc(C(=O)N(C)C3CCCCC3)c1)C(N)=N2 [Compound 412]
<30%	<30%	27%	CN(C(=O)c1cccc(CN2Cc3cc(Sc4cccc5ccccc45)ccc3N=C2N)c1)C1CCCCC1 [Compound 414]
<30%	71%	111%	Cc1ccc(C(CCC(=O)N(C)C2CCCCC2)N2Cc3cc(Oc4ccccc4)ccc3N=C2N)cc1 (stereo not drawn) [Compound 421]
<30%	26%	62%	NC1=Nc2ccc(Oc3ccccc3)cc2CN1CCNCC1CCCCC1 [Compound 427]
